Test results taken from patent US20090054382A1, “COMPOSITIONS OF PHOSPHODIESTERASE TYPE IV INHIBITORS” (priority 2005, published 2009).

Legend:
[1] = tested on: TNF-α release from human PBMCs; experiment: Cell based assay for TNF-α release, PDE IV inhibitor in combination with p38 MAP Kinase inhibitors; conditions: inhibiting TNF-α release from human PBMCs
Method: Blood was collected in heparin or EDTA vacutainers from healthy human volunteers and Peripheral Blood Mononuclear Cells isolated using Ficoll Hypaque gradient. The cells were resuspended in serum free RPMI 1640 medium at a concentration of 2 million cells/ml.). […] of this cell suspension was co-incubated with 20 μl of compound, alone or in combination, for 10 min in a flat bottom 96 well microtiter plate. Compounds were dissolved in DMSO initially and diluted in medium for a final concentration of 0.2% DMSO. LPS (1 μg/ml, final concentration) was then added at a volume of 10 μl per well. After 30 min, 20 μl of fetal calf serum (final concentration of 10%) was added to each well. Cultures were incubated overnight at 37° C. in an atmosphere of 5% CO2 and 95% air. Supernatant were then removed and tested by ELISA for TNF-α release using a commercial kit (e.g. BD Biosciences). The level of TNF-α in treated wells was compared with the vehicle treated controls and inhibitory potency of compound was expressed as IC50 values calculated from the percent inhibition values by using Graph pad prism.

[2] = tested on: LPS induced airway hyperreactivity and neutrophil count in BAL; experiment: In-vivo assay of PDE-IV inhibitors in combination with muscarinic receptor antagonists (LPS airway hyperreactivity and neutrophilia); conditions: Wistar rats, intratracheal, combination with Tiotropium
Method: MRA (1 ng/kg to 1 mg/kg) and PDE-IV inhibitor (1 ng/kg to 1 mg/kg) were instilled intratracheally under anesthesia either alone or in combination.
Wistar rats weighing 200±20 gm were used in the study. Rats had free access to food and water. On the day of experiment, animals were exposed to lipopolysaccharide (LPS, 100 μg/ml) for 40 min. One group of vehicle treated rats was exposed to phosphate buffered saline (PBS) for 40 min. […] The respiratory parameters were recorded online using Biosystem XA software, (Buxco Electronics, USA). Penh, at any chosen dose of acetylcholine was expressed as percent of PBS response and using a nonlinear regression analysis PC100 (2 folds of PBS value) values were computed. […]
PC100LPS=PC100 in vehicle treated and LPS challenged group PC100TEST=PC100 in group treated with a given dose of test compound PC100PBS=PC100 in vehicle treated group challenged with PBS Immediately after the airway hyperreactivity response was recorded, animals were sacrificed and bronchoalveolar lavage (BAL) performed. […] Total leukocyte and Neutrophil counts were expressed as cell count (millions cells ml^−1 of BAL). […]

COc1cc(C2=NO[C@]3(CCOC3)C2)ccc1OC(F)F (single isomer, unassigned) [Compound No. 266, (5S or 5R)-3-[4-(Difluoromethoxy)-3-methoxyphenyl]-1,7-dioxa-2-azaspiro[4.4]non-2-ene] was tested, and the Indication [1] was “synergistic response” and the “synergy with muscarinic receptor antagonist (MRA)” value [2] was “synergy”.
